{"source": "patent US5811465A", "about": "“Composition, device, and method for electrotransport agent delivery” (priority 1997, dated 1998)", "key": {"[1]": {"assay": "Electrical conductivity of human cadaver skin during electrotransport with permeation enhancer (Example 1)", "conditions": "for Normalized Skin Conductivity (after 5 hrs): control = 1.00, 100 μA/cm^2, about 32° C.; for enhancement (skin conductivity), in words: comparison among tested enhancers, with/without ethanol", "protocol": "(§1) Human cadaver skin was prepared by first removing about 1 mm thick skin samples with an electric dermatome in the form of strips. The skin strips were placed in polyethylene bags, sealed and placed in a refrigerator at about 4° C. for temporary storage. Prior to use in the electrotransport cell, the skin strips were placed in one-liter beakers containing water at 60° C. for about 90 seconds with gentle stirring. Then, the skin strips were removed and placed onto the absorbent side of a piece of BENCHKOTE™ fabric with the dermis side down. Using flat tipped tweezers to retain the dermis, the epidermis was removed from each strip with a round-tip spatula. Each epidermis, stratum comeum side up, was transferred to a PYREX™ glass tray which was filled with water. Each floating epidermis was stretched essentially flat. After removal from the water 2.22 cm (7/8 in.) diameter disks of each epidermis were punched out of areas having negligible surface damage. The disks were stored at 4° C. in a sealed container with water droplets to maintain their moisture.\n(§2) The human cadaver epidermis disks were mounted between compartments 44 and 46 of the electrotransport permeation cell shown in FIG. 2. The cell was comprised of a polycarbonate support structure 52, including O-ring seals 54, and the assembly was held together with stainless steel bolt and nut 56. The human skin disk 42 separated the anodic compartment 44 and the cathodic compartment 46. A silver anode 48 was placed adjacent to the anodic compartment 44, and a silver chloride cathode 50 was placed adjacent to the cathodic compartment 46. The area of the human skin disk 42 exposed for transport was about 1.26 cm^2 and the volume of each of compartments 44 and 46 was about 2 ml. The electrodes 48, 50 were electrically connected to a galvanostat (not shown in FIG. 2), which can be set to apply the voltage necessary to achieve a constant predetermined level of electric current. The galvanostat was set to apply a current of 126 μA, ie, 100 μA/cm^2 across electrodes 48, 50 throughout each test.\n(§3) Dulbecco's phosphate buffered saline (about 0.15M NaCl with minor amounts of other ions, pH 7.0) was placed in the anodic receptor compartment 44. The skin resistance was calculated from the voltages applied by the galvanostat according to Ohm's law, ie, Rskin =ΔV/i, where ΔV is the potential applied by the galvanostat, and i is the applied current, 126 microamps.\n(§4) The system was maintained at about 32° C. by a Haake Model D1 heating block/water bath. The cell voltage was monitored over the entire procedure, and then averaged. The skin resistance was calculated from Ohm's law as described above using the measured ΔV.\n(§5) The samples were automatically taken from the receptor compartment every one to two hours, except for overnight experimentation, with an Isco Model 2230 autosampler and a metering pump. […] Each run was conduced in triplicate, including the control, to minimize error. All cells were set up with tissue from the same cadaver. The selected permeation enhancer was placed in the donor compartment, while the control cell's donor compartment contained no enhancer.\n(§6) Thus, the flux control and the skin conductivity control were each assigned a value of 1, and the flux/conductivity values obtained after addition of each permeation enhancer to the donor solution are normalized to the control."}, "[2]": {"conditions": "for Normalized Ketoprofen Flux (after 5 hrs): control = 1.00, 100 μA/cm^2, about 32° C.", "protocol": "as §1, §2, §3, §4, §5, §6"}, "[3]": {"assay": "Water solubility of permeation enhancer", "format": "physicochemical", "conditions": "at about 20° C."}, "[4]": {"conditions": "10 mM enhancer in 20% Ethanol, pH 7.30 (ODAA), 7.00 (A3)"}, "[5]": {"conditions": "25 mM enhancer in 20% Ethanol, pH 7.05"}, "[6]": {"conditions": "25 mM enhancer, without ethanol, pH 6.90"}, "[7]": {"conditions": "1,2-dodecane diol with vs without ethanol"}, "[8]": {"conditions": "10 mM enhancer, without ethanol, pH 7.20 (DMDDA), 6.90 (DDPDCl)"}}, "note": "Where two headings read alike, the source gives them in different places.", "data": [{"compound": "octyl-N,N-dimethyl-dodecylamino acetate [ODAA]", "values": [{"measurement": "Normalized Skin Conductivity (after 5 hrs)", "setting": "[1]; [4]", "result": 4.61}]}, {"compound": "CCCCCCCCCCC(O)CO", "note": "(stereo not shown) [1,2-Dodecanediol, 1,2-dodecane diol]", "values": [{"measurement": "Normalized Skin Conductivity (after 5 hrs)", "setting": "[1]; [5]", "result": 6.81}, {"measurement": "Normalized Skin Conductivity (after 5 hrs)", "setting": "[1]; [6]", "result": 5.69}, {"measurement": "increase in skin conductivity by presence of ethanol", "setting": "[1]; [7]", "result": "about 20%"}, {"measurement": "enhancement of skin conductivity relative to the other permeation enhancers", "setting": "[1]; alone without ethanol", "result": "more than double"}, {"measurement": "enhancement (skin conductivity), in words", "setting": "[1]", "result": "effective for enhancing both flux and skin conductivity in the presence and in the absence of ethanol"}, {"measurement": "Normalized Ketoprofen Flux (after 5 hrs)", "setting": "[2]; [5]", "result": 1.95}, {"measurement": "Normalized Ketoprofen Flux (after 5 hrs)", "setting": "[2]; [6]", "result": 1.99}, {"measurement": "effect of ethanol as solvent on ketoprofen flux", "setting": "[2]; [7]", "result": "did not affect ketoprofen flux"}, {"measurement": "ketoprofen flux enhanced, relative to control value (in words)", "setting": "[2]; addition of 1,2-dodecane diol", "result": "about double"}, {"measurement": "enhancement (flux), in words", "setting": "[2]; ketoprofen flux, comparison among tested enhancers, with/without ethanol", "result": "effective for enhancing both flux and skin conductivity in the presence and in the absence of ethanol"}, {"measurement": "water solubility", "setting": "[3]", "result": "greater than 25 mM"}]}, {"compound": "CCCCCCCCCCCC(=O)OCCCn1ccn(C)c1=O", "note": "[A3, 1-methyl-4-imidazoline-2-one-3-propylenedodecanoate]", "values": [{"measurement": "Normalized Skin Conductivity (after 5 hrs)", "setting": "[1]; [4]", "result": 5.93}, {"measurement": "Normalized Ketoprofen Flux (after 5 hrs)", "setting": "[2]; [4]", "result": 1.76}]}, {"compound": "CCCCCCCCCCCCO", "note": "[Dodecanol, dodecanol]", "values": [{"measurement": "Normalized Skin Conductivity (after 5 hrs)", "setting": "[1]; [5]", "result": 34.7}, {"measurement": "enhancement (skin conductivity), in words", "setting": "[1]", "result": "greatest enhancement"}, {"measurement": "enhancement (flux), in words", "setting": "[2]", "result": "greatest enhancement"}]}, {"compound": "CCCCCCCCCCCCN(C)C", "note": "[DMDDA, N,N-dimethyl-dodecylamine]", "values": [{"measurement": "Normalized Skin Conductivity (after 5 hrs)", "setting": "[1]; [8]", "result": 2.71}, {"measurement": "Normalized Ketoprofen Flux (after 5 hrs)", "setting": "[2]; [8]", "result": 1.37}]}]}
